Test results from paper PMC4413647, “Simultaneous targeting of androgen receptor (AR) and MAPK-interacting kinases (MNKs) by novel retinamides inhibits growth of human prostate cancer cell lines” (Oncotarget, 2014).

What was measured:
PC-3 cells = assay: MTT cell proliferation assay, 7 d, PC-3; assay type: cell-based; conditions: Homo sapiens, PC-3, 168 h, 7 d treatment
Text: Androgen-dependent (LNCaP), androgen-independent (PC-3) and castration resistant (C4-2B and 22Rv1) human prostate carcinoma cells were procured from American Type Culture Collection, Manassas, VA, USA and maintained in RPMI 1640 media (Gibco-Life Technologies, Grand Island, NY, USA) supplemented with 10% fetal bovine serum and 1% penicillin/streptomycin. […] Immortalized untransformed prostate epithelial cells, PWR1E from American Type Culture Collection were maintained in serum-free Keratinocyte media (Gibco) supplemented with epidermal growth factor and bovine pituitary extract. All cell lines were maintained in a 37 °C/5% CO2 humidified atmosphere.
Cell proliferation assay was performed as described previously. For cell growth experiment, cells were treated with the NRs for 7 days. MTT assay was performed at the end of the experiment. Calculations of combination indices were done using the Calcusyn program (Biosoft, Cambridge, United Kingdom). For colony formation assay, cells were plated 1000 per well in complete media and allowed to adhere for 24 h. The next day cells were treated with indicated compounds (5 μM). After 24 h compound containing media were removed, and cells were allowed to form colonies in complete media. Approximately 2 weeks later the colonies were fixed, stained with 0.5% crystal violet (sigma) for 30 min and counted manually. Results represent the mean ± standard deviation of three independent experiments.

LNCaP cells = assay: MTT cell viability of LNCaP cells with AR/MNK1 siRNA and VNLG-152; assay type: cell-based, human; conditions: untransfected cells, 5 μM, 72 h
Text: To confirm whether the observed anti-cancer effects of VNLG-152 on PCa cells was primarily due to its inhibitory effects on AR and MNK, we investigated the impact of AR and/or MNK siRNA on the survival of LNCaP cells by MTT assay. […] Co-transfection of LNCaP cells with both AR and MNK1 siRNA (compare lanes 1 and 4) further augmented loss of viability in LNCaP cells.
Figure 6 Effect of siAR, siMNK1 on LNCaP cell viability, and VNLG-152 on key and downstream proteins in LNCaP cells (A) Western blot analysis of the expression of fAR, MNK1 and peIF4E in LNCaP cells transfected with 100 nM of siAR, siMNK1 and combinations for 18 h. (B) Effect of VNLG-152 (5 μmol) on cell proliferation in LNCaP cells transfected with siAR, siMNK1 and combinations as determined by MTT assay. The results represent the mean ± SEM of three independent experiments and are represented as a bar graph after normalizing to control cells. *, P< 0.05; ♣, P<0.01 compared with vehicle treated control. (C) Dose-dependent effect of VNLG-152 on the expression of AR, MNKs, peIF4E and downstream target proteins. Total cell lysate from LNCaP cells treated with VNLG-152 (0 - 20 μmol/L) for 24 h were separated by SDS-PAGE and probed with corresponding antibodies. Vehicle treated cells were included as control and all blots were reprobed for β-actin to ensure equal protein loading. […]

## CC1=C(/C=C/C(C)=C/C=C/C(C)=C/C(=O)Nc2ccc(F)cc2)C(C)(C)CCC1n1ccnc1 (racemic) [VNLG-152]
PC-3 cells
  GI50: 5.62 µM
LNCaP cells
  LNCaP cell viability: robust reduction
